Data taken from patent US10696685B2, “Polyketides, methods of use and preparation” (Universiteit Leiden, priority 2015, dated 2020).
“Also recorded” adds a separate entry of the source.

Experiments:
Escherichia coli JM109 = test: Disk diffusion antimicrobial activity assay, Escherichia coli JM109; type: cell-based; conditions: paper disk, 25 μL of 2 μg/μL in chloroform (lugdunomycin: 10 μL of 1 μg/μL in methanol); 37° C., 18 h; FIG. 6 B, D
Description: (§1) Streptomyces sp. QL37 was isolated from soil in the Qinling mountains (P. R. China) soil as described previously (Zhu et al, 2014b). The previously undescribed strain was deposited to the collection of the Centraal Bureau voor Schimmelcultures (CBS) in Utrecht, The Netherlands. Streptomyces sp. QL37 was cultivated on Minimal Medium agar plates (MM) (Kieser et al., 2000) with 0.5% glycerol and 1% mannitol (w/v) as the carbon sources, on R5 agar supplemented with 0.8% peptone and 1% mannitol (w/v), or to prepare spore suspensions on SFM agar plates (Soy flour man nitol; (Kieser et al., 2000)). Square agar plates (12 cm×12 cm) were inoculated with 1×10^7 spores from a fresh spore suspension. As indicator strains for the antibacterial assays we used B. subtilis 168 and E. coli JM109 (Sambrook et al., 1989).
(§2) Antimicrobial activity was determined using a disk diffusion assay. For this, compounds were dissolved in chloroform to a concentration of (2 μg/μL) and of this solution, 25 μL was applied on a paper disk (GE Healthcare Bio-Sciences, Pittsburgh), except for lugdunomycin, for which 10 μL of a 1 μg/μL solution in methanol was used. […] After incubation at 37° C. for 18 h, growth inhibition zones (in mm) were recorded as antimicrobial activity.

Bacillus subtilis 168 = test: Disk diffusion antimicrobial activity assay, Bacillus subtilis 168; type: cell-based; conditions: paper disk, 25 μL of 2 μg/μL in chloroform (lugdunomycin: 10 μL of 1 μg/μL in methanol), 37° C., 18 h, FIG. 6 A
Description: as §1, §2

For `COc1cccc2c1[C@@H](O)[C@]13C[C@@H](O)C[C@]1(C(=O)NC3=O)[C@]21Oc2cc(C)cc3ccc(O)c1c23` [Lugdunomycin (1), lugdunomycin], which “antimicrobial activity (growth inhibition) against Gram-negative Escherichia coli JM109” value (Escherichia coli JM109) is on record?
Its value is “not against”.

And the “antimicrobial activity (growth inhibition) against Gram-positive Bacillus subtilis” value (Bacillus subtilis 168)?
Its value is “showed inhibition efficacy; also recorded: showed antimicrobial activity”.
